Results: patent US12479877B2, “Methods for purifying steviol glycosides and uses of the same” (PureCircle Sdn. Bhd., priority 2010, dated 2025)
“And” between values parts separate entries of the source, which are not always exact repeats. Equal entries are not always repeated.

Columns and labels:
Type in all cases: in vivo, human
[1] = Beverage formulations: taste properties compared with Reb A
panel of trained tasters = experiment: Reb X sweetness vs. concentration, matched to sucrose references; details: for Reb X Concentration (ppm) matching sucrose reference: Reb X 98% purity, water at room temperature
Description: 2.5%, 5.0%, 7.5%, and 10.0% sucrose solutions were prepared in neutral (7.0 pH) and acidified water (3.2 pH) as reference samples. Solutions containing Reb X (98% purity) were prepared to match the sweetness of each sucrose reference in neutral and acidified water. Samples were tasted and verified by a panel of trained tasters in water at room temperature.

[2] = system: semi-trained panel members; experiment: Sensory comparison of Reb X and Reb A, iso-sweet samples at 8% sucrose equivalent
Description: To compare the sensory attributes between Reb X and Reb A, iso-sweet samples having 8% sucrose equivalent sweetness were made with filtered water as shown in Table 8. An 8% sugar solution in water at room temperature was used as a control. An 8% sugar solution in the acidified solution was used as the control. The samples prepared with filtered water were evaluated by 34 semi-trained panel members at room temperature. The samples prepared with acidified water were evaluated by 23 semi-trained panel members at room temperature. Samples were given to the panel members sequentially and coded with triple digit numbers. The order of sample presentation was randomized to avoid order of presentation bias. Water and unsalted crackers were provided in order to cleanse the palate. The panel members were asked to rate different attributes including sweetness onset, total sweetness, rounded sweetness, bitterness, acidity, leafy note, licorice, astringency, mouthfeel, mouth coating, sweet lingering, and bitter lingering. Samples were rated on a scale of zero (0) to ten (10), with zero indicating immediate onset, no intensity, watery/low viscosity, or very sharp peak, and ten indicating very delayed onset, high intensity, thick/high viscosity, or very round peak. One-way single factor ANOVA was used to analyze sensory results, where α=0.05.

[3] = Sweetness Equivalent (SE) 10.0%
[4] = acidified water (250 ppm citric acid, pH 3.2), 23 panel members, FIG. 12

C=C1C[C@@]23CCC4[C@](C)(C(=O)OC5OC(CO)C(O)C(OC6OC(CO)C(O)C(O)C6O)C5OC5OC(CO)C(O)C(O)C5O)CCC[C@@]4(C)[C@@H]2CCC1(OC1OC(CO)C(O)C(OC2OC(CO)C(O)C(O)C2O)C1OC1OC(CO)C(O)C(O)C1O)C3 (stereo partly drawn) [Reb X, (13-[2-O-β-D-glucopyranosyl-3-O-β-D-glucopyranosyl-β-D-glucopyranosyl)oxy] ent kaur-16-en-19-oic acid-[2-O-β-D-glucopyranosyl-3-O-β-D-glycopyranosyl) ester]
Taste properties compared to Reb A drink ([1]; flavored zero caloric black tea drink, 250 ppm Reb X vs 250 ppm Reb A): much cleaner in finish with less sweetness linger and a more rounded overall sweetness profile | Reb X level closest in sweetness level to a 11.5 Brix high fructose corn syrup sweetened orange flavored sparkling beverage ([1]; zero caloric orange-flavored sparkling beverage base): 500 ppm and 550 ppm | Taste compared to Reb A-containing formulations ([1]; zero caloric orange-flavored sparkling beverage, Reb X 400 to 750 ppm in 50 ppm increments): significantly better than comparable Reb A-containing formulations | Taste properties compared to Reb A drink ([1]; zero calorie enhanced water drink, 200 ppm Reb X vs 200 ppm Reb A): cleaner in finish and had reduced sweetness linger and a more rounded overall sweetness taste quality | Sweetness Factor (SF) (panel of trained tasters; Sweetness Equivalent (SE) 2.5%): 521 | Reb X Concentration (ppm) matching sucrose reference (panel of trained tasters; Sweetness Equivalent (SE) 2.5%): 48 ppm | Sweetness Factor (SF) (panel of trained tasters; Sweetness Equivalent (SE) 5.0%): 380 | Reb X Concentration (ppm) matching sucrose reference (panel of trained tasters; Sweetness Equivalent (SE) 5.0%): 132 ppm | Sweetness Factor (SF) (panel of trained tasters; Sweetness Equivalent (SE) 7.5%): 295 | Reb X Concentration (ppm) matching sucrose reference (panel of trained tasters; Sweetness Equivalent (SE) 7.5%): 254 ppm | Sweetness Factor (SF) (panel of trained tasters; [3]): 237 | Reb X Concentration (ppm) matching sucrose reference (panel of trained tasters; [3]): 422 ppm | Perceived sweetness compared to Reb A [2, 4]: higher sweetness of Reb X over Reb A is significant | Sweetness onset, non-sweet taste and bitterness lingering compared to Reb A [2, 4]: faster sweetness onset, reduced non-sweet taste (bitterness, sour, astringency) and bitterness lingering | Bitterness, astringency and bitter lingering compared to Reb A ([2]; filtered water, room temperature, 34 panel members, FIG. 11): reduced perception of bitterness, astringency and bitter lingering compared to Reb A
